Data from EP0563345B1, “NOVEL 4-ARYLPIPERAZINES AND 4-ARYLPIPERIDINES” (MCNEILAB, INC., priority 1991, dated 1993).
Counter-ions that a name gives are not always drawn.

What was measured:
Male, Fischer 344 rats = assay: Block of Conditioned Avoidance Responding (Rat) test (CAR); settings: for CAR 5 mg/kg IP Administration (% change CAR) / CAR 15 mg/kg IP Administration (% change CAR): negative number = blockade of CAR
From the text: Apparatus: Rat operant chambers, housed within sound attenuated booths, both from Capden Instruments Ltd., were used in this test. The test chamber (8" H x […] D) is constructed of aluminum and plexiglass with floor grid bars of stainless-steel (1/8" O.D.) spaced 9/16" apart. A stainless-steel operation level 1-1/2" wide projects 3/4" into the chamber and is positioned 2-2/8" above the grid floor. The shock stimulus is delivered via the grid floor by a Coulbourn Instruments solid state module. The parameters of the test and the collection of data are controlled automatically.
The rats are trained for two weeks to approach criterion levels in the avoidance test (90% avoidance rate). One-hour training sessions are run at about the same time each day for four or five days a week. The training session consists of 120 trials, with the conditioned stimuli presented every 30 sec. A trial begins with presentation of the conditioned stimuli (a light and a tone). If the rat responds by depressing the operant lever during the 15-second presentation of the conditioned stimuli, the trial is terminated and the animal is credited with a CAR. Failure to respond during the conditioned stimuli causes the presentation of the unconditioned stimulus (UCS), a 0.7 mA shock which is accompanied by a light and tone for five seconds. If the rat depressed the lever within the ten-second period, the shock and trial are terminated and an escape response recorded. If the rat fails to depress the lever during the UCS (shock), the trial is terminated after ten seconds of shock and the absence of a response is scored as a failure to escape. Intertrial level presses have no effect. If a rat performs at the 90% CAR level for two weeks, it is then run twice a week on the test schedule (see below) until baseline performance stabilized.
Trained rats are run in a one-hour session on two consecutive days at the same time and in the same test chamber each day. The sessions consist of 60 trials, one every minute. The conditioned stimuli are presented for 15 sec (maximum) and the unconditioned stimuli five sec (maximum). On Day 1, a vehicle solution is administered to the rats at a time preceding the trial run corresponding to the pretreatment time for the test compound. The route of administration and the volume of vehicle are also matched to that of the test compound.
The percent change in CAR on the drug treatment day compared to vehicle pretreatment day is the key measure. The percent change (% change) in CAR is determined using the following formula: % change CAR = ((% CAR for Day 2/% CAR for Day 1) x 100)-100 [formula]
A negative number indicates a blockade of CAR, whereas a positive number would indicate increased CAR. The test results are reported as the mean % change for the group of rats. Failure to escape, a measure of the general sedative potential of the compound, was calculated for each animal as follows: % Failures = # of Failures to Escape/# of trials [formula]
The % failures, viz., loss of escape, is also reported as a group mean. Failures to escape are monitored closely and a session is terminated if ten failures occurred.
In the Tables and formulas therein, OiPr is isopropoxy, Me is methyl, MeO is methoxy, Et is ethyl, Ph is phenyl, n-Bu is normal butyl, cC6H11 is cyclohexyl, BOC is t-butyloxycarbonyl, Ac is acetyl, and NT is not tested in that partcular test. The escape loss numbers are shown at CAR 5 mg/kg unless otherwise noted.

[1] = molecular target: T1, D-2 (dopamine-2) receptors (Rattus norvegicus, UniProt P61169); assay: biochemical; format: binding, male, Wistar rats; settings: rat striatum P2 fraction, 3H-spiperone 0.05 nM; read-out: Receptor Binding (Ki nM) D2
T1 construct: The D2 assay employed a P2 fraction from the striatum, the ligand ^3H-spiperone at a concentration of 0.05 nM; from tissue; host or cells: rat striatum, P2 fraction (synaptosomal membranes), male Wistar rats
T1 sequence (P61169 whole entry): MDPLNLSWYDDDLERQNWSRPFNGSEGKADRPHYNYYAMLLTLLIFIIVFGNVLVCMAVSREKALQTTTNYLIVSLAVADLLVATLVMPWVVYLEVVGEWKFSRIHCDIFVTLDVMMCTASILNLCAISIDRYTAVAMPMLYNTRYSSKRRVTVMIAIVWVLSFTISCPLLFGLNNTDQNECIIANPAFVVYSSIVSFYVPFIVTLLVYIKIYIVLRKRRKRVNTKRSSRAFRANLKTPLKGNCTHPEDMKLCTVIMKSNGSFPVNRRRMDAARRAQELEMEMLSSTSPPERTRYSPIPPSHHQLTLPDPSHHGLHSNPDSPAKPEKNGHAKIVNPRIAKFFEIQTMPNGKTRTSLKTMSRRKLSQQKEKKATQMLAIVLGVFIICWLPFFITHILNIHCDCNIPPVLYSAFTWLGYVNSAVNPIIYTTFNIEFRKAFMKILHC
Method: The dopamine D2 binding activity of compounds was determined using a P2 fraction (synaptosomal membranes) prepared from male, Wistar rats.
The data from this assay were analyzed by calculating the percent inhibition of the binding of the tritiated ligands by given concentrations of the test compound. Kl values, where given, were obtained from the logit analysis of concentration-inhibition curves.

Row | Compound | Ki [1] [nM] | (Escape Loss) % failures to escape (Male, Fischer 344 rats; at CAR 15 mg/kg IP) [%] | CAR 15 mg/kg IP Administration (% change CAR) (Male, Fischer 344 rats) [%] | other results
1 | C[C@@H]1CCC[C@H](C)N1C(=O)c1cccc(CN2CCN(c3ccccc3C#N)CC2)c1 [Compound 3] | 303 | – | – | –
2 | COc1ccc(CN2CCN(c3ncccn3)CC2)cc1C(=O)N1[C@H](C)CCC[C@@H]1C [Compound 6] | 808 | – | – | –
3 | CC(C)Oc1ccccc1N1CCN(Cc2ccc([N+](=O)[O-])c(C(=O)N3CCCCC3)c2)CC1 [Compound 7] | 85 | – | – | –
4 | COc1ccc(CN2CCC(c3ccccc3OC(C)C)CC2)cc1C(=O)N1[C@H](C)CCC[C@@H]1C [Compound 15] | 43 | 30 | -86 | –
5 | CCOC(=O)C1CCCCN1C(=O)c1cccc(CN2CCN(c3ccccc3C)CC2)c1 (stereo not drawn) [Compound 18] | 132 | 9 | -24 | –
6 | O=C(c1cccc(CN2CCN(c3ccccc3F)CC2)c1)N1CCCCC1 [Compound 22] | – | 21 | -84 | –
7 | O=C(c1cccc(CN2CCN(c3ncccn3)CC2)c1)N1CCc2ccccc21 [Compound 23] | > 1000 | 9 | -62 | –
8 | CC(=O)Nc1ccc(CN2CCN(c3ccccc3OC(C)C)CC2)cc1C(=O)N1CCCCC1 [Compound 28] | 29 | 17 | -100 | –
9 | COc1ccc(CN2CCN(c3ccccc3OC(C)C)CC2)cc1C(=O)N1CCCCC1 [Compound 29] | 32 | – | – | CAR 5 mg/kg IP Administration (% change CAR) (Male, Fischer 344 rats): -98%; (Escape Loss) % failures to escape (Male, Fischer 344 rats; at CAR 5 mg/kg IP): 50%
10 | CC(C)Oc1ccccc1C1CCN(Cc2cccc(C(=O)N3[C@H](C)CCC[C@@H]3C)c2)CC1 [Compound 40] | – | – | – | CAR 5 mg/kg IP Administration (% change CAR) (Male, Fischer 344 rats): -98%; (Escape Loss) % failures to escape (Male, Fischer 344 rats; at CAR 5 mg/kg IP): 37%
11 | CCOC(=O)C1CCN(C(=O)c2cccc(CN3CCN(c4ccccc4OC(C)C)CC3)c2)CC1 [Compound 42] | 121 | – | – | CAR 5 mg/kg IP Administration (% change CAR) (Male, Fischer 344 rats): -18%; (Escape Loss) % failures to escape (Male, Fischer 344 rats; at CAR 5 mg/kg IP): 0%
12 | O=C(c1cccc(CN2CCN(c3cccc([N+](=O)[O-])c3)CC2)c1)N1CCCCC1 [Compound 49] | – | 0 | -78 | –
13 | CC(C)Oc1ccccc1N1CCN(Cc2cccc(C(=O)N3CCC3)c2)CC1 [Compound 51] | – | 0 | -88 | –
14 | CC(C)Oc1ccccc1N1CCN(Cc2cccc(C(=O)N3CCCC3)c2)CC1 [Compound 52] | – | – | – | CAR IP Administration (% change CAR) at 7.5 mg/kg (Male, Fischer 344 rats; 7.5 mg/kg IP): -98%; (Escape Loss) % failures to escape (Male, Fischer 344 rats; at CAR 7.5 mg/kg IP): 0%
15 | CCN(CC)C(=O)c1cccc(CN2CCN(c3ccccc3OC(C)C)CC2)c1 [Compound 68] | – | – | – | CAR 5 mg/kg IP Administration (% change CAR) (Male, Fischer 344 rats): -96%; (Escape Loss) % failures to escape (Male, Fischer 344 rats; at CAR 5 mg/kg IP): 14%
16 | CCCCN(CCCC)C(=O)c1cccc(CN2CCN(c3ccccc3OC(C)C)CC2)c1 [Compound 69] | – | 0 | -6 | –
17 | COc1ccccc1N1CCN(Cc2cccc(C(=O)N3CCCCCC3)c2)CC1 [Compound 85] | – | – | – | CAR 5 mg/kg IP Administration (% change CAR) (Male, Fischer 344 rats): -95%; (Escape Loss) % failures to escape (Male, Fischer 344 rats; at CAR 5 mg/kg IP): 22%
18 | O=C(c1cccc(CN2CCN(c3cccc(Cl)c3)CC2)c1)N1CCCCC1 [Compound 91] | – | – | – | CAR 5 mg/kg IP Administration (% change CAR) (Male, Fischer 344 rats): -36%; (Escape Loss) % failures to escape (Male, Fischer 344 rats; at CAR 5 mg/kg IP): 21%
19 | O=C(c1cccc(CN2CCN(c3ccccc3)CC2)c1)N1CCCCC1 [Compound 95] | – | 11 | -82 | –
20 | CC(C)Oc1ccccc1N1CCN(Cc2cccc(C(=O)N3CC4CCC(CC4)C3)c2)CC1 [Compound 96] | – | 67 | -98 | –
21 | CC(C)Oc1ccccc1N1CCN(CCCC(O)c2ccc(C(=O)N3CCCCC3)cc2)CC1 (stereo not drawn) [Compound 101, bisoxalate] | 13 | – | – | –
22 | CC(C)Oc1ccccc1N1CCN(Cc2ccccc2C(=O)N2CCOCC2)CC1 [Compound 110] | 32 | – | – | –

More lines, in order of falling Ki [1], values ahead:

Row | Ki [1] [nM] | (Escape Loss) % failures to escape (Male, Fischer 344 rats; at CAR 15 mg/kg IP) [%] | Compound | CAR 15 mg/kg IP Administration (% change CAR) (Male, Fischer 344 rats) [%] | other results
23 | 11 | – | CC(C)Oc1ccccc1N1CCN(CCCC(=O)c2ccc(C(=O)N3CCCCC3)cc2)CC1 [Compound 100, fumarate] | – | –
24 | 10.4 | – | CCOC(=O)C1CCN(C(=O)c2ccccc2CN2CCN(c3ccccc3OC(C)C)CC2)CC1 [Compound 108] | – | –
25 | 10 | 0 | CC(C)Oc1ccccc1N1CCN(Cc2cccc(C(=O)N3CCC[C@H]3C(=O)OCc3ccccc3)c2)CC1 [Compound 13] | -4 | –
26 | 9.6 | – | CC(C)Oc1ccccc1C1CCN(Cc2cccc(C(=O)N3CCOCC3)c2)CC1 [Compound 41] | – | CAR 5 mg/kg IP Administration (% change CAR) (Male, Fischer 344 rats): -96%; (Escape Loss) % failures to escape (Male, Fischer 344 rats; at CAR 5 mg/kg IP): 70%
27 | 9 | 43 | CC(C)Oc1ccccc1N1CCN(Cc2cccc(C(=O)N3CCCC3CO)c2)CC1 (stereo not drawn) [Compound 26] | -100 | –
28 | 8 | – | CC(C)Oc1ccccc1N1CCN(Cc2cccc(C(=S)N3CCCCC3)c2)CC1.Cl [Compound 1, 1-[3-[[4-[2-(1-Methylethoxy)phenyl]-1-piperazinyl]methyl]thiobenzoyl]piperidine Hydrochloride] | – | CAR 5 mg/kg IP Administration (% change CAR) (Male, Fischer 344 rats): -71%; (Escape Loss) % failures to escape (Male, Fischer 344 rats; at CAR 5 mg/kg IP): 20%
29 | 7.2 | – | CC(C)Oc1ccccc1N1CCN(CCCCc2ccc(C(=O)N3CCCCC3)cc2)CC1 [Compound 102, 1-[4-[4-[4-[2-(1-Methylethoxy)phenyl]-1-piperazinyl]butyl]benzoyl]piperidine dihydrobromide] | – | –
30 | 7 | – | CC(C)Oc1ccccc1N1CCN(Cc2ccccc2C(=O)N2CCCC(C)(C)C2)CC1 [Compound 109] | – | –
31 | 6.5 | 3 | C[C@@H]1CCC[C@H](C)N1C(=O)c1cccc(CN2CCN(c3ccc(Cl)c(Cl)c3)CC2)c1 [Compound 14] | -63 | –
32 | 6.4 | 87 | CC(C)Oc1ccccc1N1CCN(Cc2ccc(N)c(C(=O)N3CCCCC3)c2)CC1 [Compound 17] | -100 | –
33 | 5.6 | – | CC(C)Oc1ccccc1N1CCN(Cc2cccc(C(=O)N3CCC4CCCCC43)c2)CC1 (stereo not drawn) [Compound 4] | – | –
34 | 5.2 | 43 | CC(C)Oc1ccccc1N1CCN(Cc2cccc(C(=O)N3CCCCC3CO)c2)CC1 (stereo not drawn) [Compound 21] | -99 | –
35 | 5.1 | 35 | CC(C)Oc1ccccc1N1CCN(Cc2cccc(C(=O)N3CCC[C@H]3CO)c2)CC1 [Compound 16] | -99 | –
36 | 4.7 | – | CC(C)Oc1ccccc1N1CCN(Cc2cccc(C(=O)N3C(C)CCC3C)c2)CC1 (stereo not drawn) [Compound 2] | – | –
37 | 4.7 | 9 | CC(C)Oc1ccccc1N1CCN(Cc2cccc(C(=O)N3C(C)(C)CCCC3(C)C)c2)CC1 [Compound 12] | -92 | –
38 | 4.1 | 46 | CCOC(=O)C1CCCCN1C(=O)c1cccc(CN2CCN(c3ccccc3OC(C)C)CC2)c1 (stereo not drawn) [Compound 19] | -97 | –
39 | 2.8 | – | CC(C)Oc1ccccc1C1CCN(Cc2cccc(C(=O)N3CCCCC3)c2)CC1.Cl [Compound 38, 1-[3-[[4-[2-(1-Methylethoxy)phenyl]-1-piperidinyl]methyl]benzoyl]-piperidine hydrochloride] | – | CAR 5 mg/kg IP Administration (% change CAR) (Male, Fischer 344 rats): -92%; (Escape Loss) % failures to escape (Male, Fischer 344 rats; at CAR 5 mg/kg IP): 5%
